Measured values from the kinase profiling compilation of Christmann-Franck et al. (2016).

What was measured:
PIM2 (human) [1] = target: PIM2 (human) (UniProt Q9P1W9); experiment: SelectScreen, TR FRET
PIM1 (human) [2] = target: PIM1 (human) (UniProt P11309); experiment: SelectScreen, TR FRET
IKBKB (human) = IKBKB (human) (UniProt O14920); experiment: KINOMEscan competition binding; conditions: compound 10.0 µM
STK17A (human) = STK17A (human) (UniProt Q9UEE5); experiment: KINOMEscan competition binding; conditions: compound 10.0 µM
PIM3 (human) = PIM3 (human) (UniProt Q86V86); experiment: KINOMEscan competition binding; conditions: compound 10.0 µM
DAPK2 (human) = DAPK2 (human) (UniProt Q9UIK4); experiment: KINOMEscan competition binding; conditions: compound 10.0 µM
CDK7 (human) = CDK7 (human) (UniProt P50613); experiment: KINOMEscan competition binding; conditions: compound 10.0 µM
PIM2 (human) [3] = target: PIM2 (human) (UniProt Q9P1W9); experiment: KINOMEscan competition binding; conditions: compound 10.0 µM
MAP2K3 (human) = MAP2K3 (human) (UniProt P46734); experiment: KINOMEscan competition binding; conditions: compound 10.0 µM
CLK4 (human) = CLK4 (human) (UniProt Q9HAZ1); experiment: KINOMEscan competition binding; conditions: compound 10.0 µM
CLK2 (human) = CLK2 (human) (UniProt P49760); experiment: KINOMEscan competition binding; conditions: compound 10.0 µM
DAPK1 (human) = DAPK1 (human) (UniProt P53355); experiment: KINOMEscan competition binding; conditions: compound 10.0 µM
TGFBR2 (human) = TGFBR2 (human) (UniProt P37173); experiment: KINOMEscan competition binding; conditions: compound 10.0 µM
CHUK (human) = CHUK (human) (UniProt O15111); experiment: KINOMEscan competition binding; conditions: compound 10.0 µM
DAPK3 (human) = DAPK3 (human) (UniProt O43293); experiment: KINOMEscan competition binding; conditions: compound 10.0 µM
CDK16 (human) = CDK16 (human) (UniProt Q00536); experiment: KINOMEscan competition binding; conditions: compound 10.0 µM
TAOK3 (human) = TAOK3 (human) (UniProt Q9H2K8); experiment: KINOMEscan competition binding; conditions: compound 10.0 µM
Sequence of TAOK3 (human) (Q9H2K8 whole entry, looked up): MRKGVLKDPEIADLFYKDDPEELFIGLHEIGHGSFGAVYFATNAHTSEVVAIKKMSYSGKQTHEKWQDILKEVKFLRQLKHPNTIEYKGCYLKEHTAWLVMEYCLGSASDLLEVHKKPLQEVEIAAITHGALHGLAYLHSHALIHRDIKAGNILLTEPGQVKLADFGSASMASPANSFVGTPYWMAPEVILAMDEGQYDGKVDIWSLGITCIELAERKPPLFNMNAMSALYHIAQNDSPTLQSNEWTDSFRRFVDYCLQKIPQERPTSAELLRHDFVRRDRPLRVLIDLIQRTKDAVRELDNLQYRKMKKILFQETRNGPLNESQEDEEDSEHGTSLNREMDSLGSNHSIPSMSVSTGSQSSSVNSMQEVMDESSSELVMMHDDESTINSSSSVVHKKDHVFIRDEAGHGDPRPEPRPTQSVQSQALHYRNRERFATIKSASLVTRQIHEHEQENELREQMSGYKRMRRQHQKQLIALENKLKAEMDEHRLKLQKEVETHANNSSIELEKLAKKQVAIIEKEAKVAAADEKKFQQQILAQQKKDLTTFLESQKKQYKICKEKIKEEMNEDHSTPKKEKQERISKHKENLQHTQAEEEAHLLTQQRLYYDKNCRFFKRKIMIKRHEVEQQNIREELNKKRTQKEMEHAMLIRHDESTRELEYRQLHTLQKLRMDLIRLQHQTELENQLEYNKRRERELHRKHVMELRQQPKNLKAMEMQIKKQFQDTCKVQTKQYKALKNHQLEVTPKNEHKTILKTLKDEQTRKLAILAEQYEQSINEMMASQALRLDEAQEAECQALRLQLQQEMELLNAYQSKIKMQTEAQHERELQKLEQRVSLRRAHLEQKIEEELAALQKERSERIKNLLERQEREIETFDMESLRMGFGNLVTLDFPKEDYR

[4] = target: TYK2 JH2 pseudokinase (human) (UniProt P29597); experiment: KINOMEscan competition binding; conditions: compound 10.0 µM
MAPK15 (human) = MAPK15 (human) (UniProt Q8TD08); experiment: KINOMEscan competition binding; conditions: compound 10.0 µM
PIM1 (human) [5] = target: PIM1 (human) (UniProt P11309); experiment: KINOMEscan competition binding; conditions: compound 10.0 µM
STK17B (human) = STK17B (human) (UniProt O94768); experiment: KINOMEscan competition binding; conditions: compound 10.0 µM
PLK4 (human) = PLK4 (human) (UniProt O00444); experiment: KINOMEscan competition binding; conditions: compound 10.0 µM
Sequence of PLK4 (human) (O00444 whole entry, looked up): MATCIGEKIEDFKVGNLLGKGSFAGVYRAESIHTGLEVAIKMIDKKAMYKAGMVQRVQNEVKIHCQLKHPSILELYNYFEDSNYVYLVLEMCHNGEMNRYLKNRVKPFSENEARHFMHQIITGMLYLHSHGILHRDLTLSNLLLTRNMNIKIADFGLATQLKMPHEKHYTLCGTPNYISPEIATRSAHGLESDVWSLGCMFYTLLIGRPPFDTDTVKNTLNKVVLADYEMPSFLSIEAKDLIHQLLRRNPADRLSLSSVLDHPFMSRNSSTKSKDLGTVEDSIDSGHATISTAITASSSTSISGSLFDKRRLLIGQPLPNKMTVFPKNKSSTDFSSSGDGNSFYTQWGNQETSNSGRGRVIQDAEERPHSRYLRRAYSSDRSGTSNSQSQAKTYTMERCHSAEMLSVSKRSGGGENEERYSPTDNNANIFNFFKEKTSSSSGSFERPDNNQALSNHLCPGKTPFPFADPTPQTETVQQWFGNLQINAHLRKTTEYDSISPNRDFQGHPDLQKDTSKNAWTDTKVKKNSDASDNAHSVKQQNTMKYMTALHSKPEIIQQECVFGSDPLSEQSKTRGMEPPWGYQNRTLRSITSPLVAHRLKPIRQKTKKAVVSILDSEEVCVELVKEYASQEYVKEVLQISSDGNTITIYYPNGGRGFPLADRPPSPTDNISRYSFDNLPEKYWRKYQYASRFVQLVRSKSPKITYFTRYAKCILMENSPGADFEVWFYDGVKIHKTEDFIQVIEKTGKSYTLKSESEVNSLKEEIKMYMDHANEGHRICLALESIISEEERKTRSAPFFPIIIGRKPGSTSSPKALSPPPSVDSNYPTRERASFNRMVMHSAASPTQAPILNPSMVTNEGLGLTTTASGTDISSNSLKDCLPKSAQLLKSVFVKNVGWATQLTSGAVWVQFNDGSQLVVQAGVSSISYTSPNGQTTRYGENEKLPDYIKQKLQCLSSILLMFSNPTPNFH

DYRK1B (human) = DYRK1B (human) (UniProt Q9Y463); experiment: KINOMEscan competition binding; conditions: compound 10.0 µM
CLK1 (human) = CLK1 (human) (UniProt P49759); experiment: KINOMEscan competition binding; conditions: compound 10.0 µM
GSK3A (human) = GSK3A (human) (UniProt P49840); experiment: KINOMEscan competition binding; conditions: compound 10.0 µM
GSK3B (human) = GSK3B (human) (UniProt P49841); experiment: KINOMEscan competition binding; conditions: compound 10.0 µM
HIPK1 (human) = HIPK1 (human) (UniProt Q86Z02); experiment: KINOMEscan competition binding; conditions: compound 10.0 µM
TAOK1 (human) = TAOK1 (human) (UniProt Q7L7X3); experiment: KINOMEscan competition binding; conditions: compound 10.0 µM
Sequence of TAOK1 (human) (Q7L7X3 whole entry, looked up): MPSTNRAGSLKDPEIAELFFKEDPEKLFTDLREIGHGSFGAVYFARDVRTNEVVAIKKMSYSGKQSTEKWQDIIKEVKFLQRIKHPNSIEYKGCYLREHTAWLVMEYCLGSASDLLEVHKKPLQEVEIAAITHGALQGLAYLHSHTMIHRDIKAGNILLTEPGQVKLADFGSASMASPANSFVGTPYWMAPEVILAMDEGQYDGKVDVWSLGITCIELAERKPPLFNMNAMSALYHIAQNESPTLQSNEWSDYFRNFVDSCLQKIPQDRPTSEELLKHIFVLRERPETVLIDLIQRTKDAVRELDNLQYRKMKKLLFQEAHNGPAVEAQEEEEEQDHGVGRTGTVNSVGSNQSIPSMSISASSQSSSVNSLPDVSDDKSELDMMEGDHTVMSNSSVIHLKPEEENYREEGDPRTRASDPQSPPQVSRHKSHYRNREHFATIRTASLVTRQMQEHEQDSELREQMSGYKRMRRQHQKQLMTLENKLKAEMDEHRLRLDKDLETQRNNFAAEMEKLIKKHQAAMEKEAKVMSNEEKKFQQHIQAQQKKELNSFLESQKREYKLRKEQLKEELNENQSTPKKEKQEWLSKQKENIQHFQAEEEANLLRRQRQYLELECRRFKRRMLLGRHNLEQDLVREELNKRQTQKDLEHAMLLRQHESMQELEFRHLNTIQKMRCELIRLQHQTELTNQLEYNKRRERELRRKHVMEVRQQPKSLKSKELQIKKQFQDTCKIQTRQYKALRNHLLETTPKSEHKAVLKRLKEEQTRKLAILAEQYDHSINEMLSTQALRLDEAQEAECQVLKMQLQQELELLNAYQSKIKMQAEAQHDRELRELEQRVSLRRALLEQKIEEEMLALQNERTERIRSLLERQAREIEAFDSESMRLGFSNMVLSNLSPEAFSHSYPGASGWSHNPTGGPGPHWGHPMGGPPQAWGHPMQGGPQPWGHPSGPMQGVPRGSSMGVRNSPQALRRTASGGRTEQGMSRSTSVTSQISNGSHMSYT

CAMK2D (human) = CAMK2D (human) (UniProt Q13557); experiment: KINOMEscan competition binding; conditions: compound 10.0 µM
CAMK2A (human) = CAMK2A (human) (UniProt Q9UQM7); experiment: KINOMEscan competition binding; conditions: compound 10.0 µM
FER (human) = FER (human) (UniProt P16591); experiment: KINOMEscan competition binding; conditions: compound 10.0 µM
MAPK7 (human) = MAPK7 (human) (UniProt Q13164); experiment: KINOMEscan competition binding; conditions: compound 10.0 µM
CAMKK2 (human) = CAMKK2 (human) (UniProt Q96RR4); experiment: KINOMEscan competition binding; conditions: compound 10.0 µM
TNK1 (human) = TNK1 (human) (UniProt Q13470); experiment: KINOMEscan competition binding; conditions: compound 10.0 µM
GAK (human) = GAK (human) (UniProt O14976); experiment: KINOMEscan competition binding; conditions: compound 10.0 µM
PRKD1 (human) = PRKD1 (human) (UniProt Q15139); experiment: KINOMEscan competition binding; conditions: compound 10.0 µM
TNK2 (human) = TNK2 (human) (UniProt Q07912); experiment: KINOMEscan competition binding; conditions: compound 10.0 µM
PTK2 (human) = PTK2 (human) (UniProt Q05397); experiment: KINOMEscan competition binding; conditions: compound 10.0 µM
SGK110 (human) = SGK110 (human) (UniProt P0C264); experiment: KINOMEscan competition binding; conditions: compound 10.0 µM
TTK (human) = TTK (human) (UniProt P33981); experiment: KINOMEscan competition binding; conditions: compound 10.0 µM
PRKD3 (human) = PRKD3 (human) (UniProt O94806); experiment: KINOMEscan competition binding; conditions: compound 10.0 µM
DCLK2 (human) = DCLK2 (human) (UniProt Q8N568); experiment: KINOMEscan competition binding; conditions: compound 10.0 µM
PRKD2 (human) = PRKD2 (human) (UniProt Q9BZL6); experiment: KINOMEscan competition binding; conditions: compound 10.0 µM
PIK3CG (human) = PIK3CG (human) (UniProt P48736); experiment: KINOMEscan competition binding; conditions: compound 10.0 µM
MKNK2 (human) = MKNK2 (human) (UniProt Q9HBH9); experiment: KINOMEscan competition binding; conditions: compound 10.0 µM
Sequence of MKNK2 (human) (Q9HBH9 whole entry, looked up): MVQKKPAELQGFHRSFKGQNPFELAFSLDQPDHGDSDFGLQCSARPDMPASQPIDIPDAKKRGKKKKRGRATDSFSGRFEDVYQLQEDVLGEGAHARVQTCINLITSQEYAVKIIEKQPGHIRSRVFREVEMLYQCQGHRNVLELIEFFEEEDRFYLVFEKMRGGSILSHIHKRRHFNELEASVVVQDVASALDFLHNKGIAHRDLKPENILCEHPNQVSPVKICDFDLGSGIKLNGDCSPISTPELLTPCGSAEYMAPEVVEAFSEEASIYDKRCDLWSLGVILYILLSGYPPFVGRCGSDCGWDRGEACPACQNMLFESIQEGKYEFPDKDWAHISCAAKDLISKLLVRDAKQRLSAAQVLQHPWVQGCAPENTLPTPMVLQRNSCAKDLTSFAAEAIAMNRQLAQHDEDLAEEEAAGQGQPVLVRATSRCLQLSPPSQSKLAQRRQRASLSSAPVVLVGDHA

PLK1 (human) = PLK1 (human) (UniProt P53350); experiment: KINOMEscan competition binding; conditions: compound 10.0 µM
ROS1 (human) = ROS1 (human) (UniProt P08922); experiment: KINOMEscan competition binding; conditions: compound 10.0 µM
[6] = test system: ABL1 (human), P00519 [F317I]; experiment: KINOMEscan competition binding; conditions: compound 10.0 µM
NUAK1 (human) = NUAK1 (human) (UniProt O60285); experiment: KINOMEscan competition binding; conditions: compound 10.0 µM
NUAK2 (human) = NUAK2 (human) (UniProt Q9H093); experiment: KINOMEscan competition binding; conditions: compound 10.0 µM
ALK (human) = ALK (human) (UniProt Q9UM73); experiment: KINOMEscan competition binding; conditions: compound 10.0 µM
PHKG2 (human) = PHKG2 (human) (UniProt P15735); experiment: KINOMEscan competition binding; conditions: compound 10.0 µM
CHEK2 (human) = CHEK2 (human) (UniProt O96017); experiment: KINOMEscan competition binding; conditions: compound 10.0 µM
Sequence of CHEK2 (human) (O96017 whole entry, looked up): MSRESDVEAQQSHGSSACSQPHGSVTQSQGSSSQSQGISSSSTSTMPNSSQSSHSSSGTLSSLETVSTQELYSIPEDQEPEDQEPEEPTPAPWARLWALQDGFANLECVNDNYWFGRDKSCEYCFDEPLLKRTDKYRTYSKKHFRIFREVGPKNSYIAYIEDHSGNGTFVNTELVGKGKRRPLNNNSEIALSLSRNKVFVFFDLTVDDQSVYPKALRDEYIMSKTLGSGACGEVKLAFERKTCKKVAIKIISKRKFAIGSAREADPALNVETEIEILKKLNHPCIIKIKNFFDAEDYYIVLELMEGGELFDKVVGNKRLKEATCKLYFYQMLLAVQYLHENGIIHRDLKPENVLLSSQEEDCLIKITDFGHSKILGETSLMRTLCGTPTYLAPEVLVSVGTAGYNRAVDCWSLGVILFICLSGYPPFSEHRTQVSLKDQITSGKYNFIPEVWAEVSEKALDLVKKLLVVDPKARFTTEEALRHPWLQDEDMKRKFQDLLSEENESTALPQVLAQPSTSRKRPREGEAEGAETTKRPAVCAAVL

PIK3CD (human) = PIK3CD (human) (UniProt O00329); experiment: KINOMEscan competition binding; conditions: compound 10.0 µM
FGFR4 (human) = FGFR4 (human) (UniProt P22455); experiment: KINOMEscan competition binding; conditions: compound 10.0 µM
[7] = test system: ABL1 (human), P00519 [F317L]; experiment: KINOMEscan competition binding; conditions: compound 10.0 µM
DCLK1 (human) = DCLK1 (human) (UniProt O15075); experiment: KINOMEscan competition binding; conditions: compound 10.0 µM
DCLK3 (human) = DCLK3 (human) (UniProt Q9C098); experiment: KINOMEscan competition binding; conditions: compound 10.0 µM
CSF1R (human) = CSF1R (human) (UniProt P07333); experiment: KINOMEscan competition binding; conditions: compound 10.0 µM
RPS6KA6 KD2 (human) = RPS6KA6 KD2 (human) (UniProt Q9UK32); experiment: KINOMEscan competition binding; conditions: compound 10.0 µM
ULK1 (human) = ULK1 (human) (UniProt O75385); experiment: KINOMEscan competition binding; conditions: compound 10.0 µM
PTK6 (human) = PTK6 (human) (UniProt Q13882); experiment: KINOMEscan competition binding; conditions: compound 10.0 µM
CAMK2G (human) = CAMK2G (human) (UniProt Q13555); experiment: KINOMEscan competition binding; conditions: compound 10.0 µM
RPS6KA2 KD2 (human) = RPS6KA2 KD2 (human) (UniProt Q15349); experiment: KINOMEscan competition binding; conditions: compound 10.0 µM
ULK2 (human) = ULK2 (human) (UniProt Q8IYT8); experiment: KINOMEscan competition binding; conditions: compound 10.0 µM
MYLK (human) = MYLK (human) (UniProt Q15746); experiment: KINOMEscan competition binding; conditions: compound 10.0 µM
STK33 (human) = STK33 (human) (UniProt Q9BYT3); experiment: KINOMEscan competition binding; conditions: compound 10.0 µM
RPS6KA1 KD2 (human) = RPS6KA1 KD2 (human) (UniProt Q15418); experiment: KINOMEscan competition binding; conditions: compound 10.0 µM
FRK (human) = FRK (human) (UniProt P42685); experiment: KINOMEscan competition binding; conditions: compound 10.0 µM
Sequence of FRK (human) (P42685 whole entry, looked up): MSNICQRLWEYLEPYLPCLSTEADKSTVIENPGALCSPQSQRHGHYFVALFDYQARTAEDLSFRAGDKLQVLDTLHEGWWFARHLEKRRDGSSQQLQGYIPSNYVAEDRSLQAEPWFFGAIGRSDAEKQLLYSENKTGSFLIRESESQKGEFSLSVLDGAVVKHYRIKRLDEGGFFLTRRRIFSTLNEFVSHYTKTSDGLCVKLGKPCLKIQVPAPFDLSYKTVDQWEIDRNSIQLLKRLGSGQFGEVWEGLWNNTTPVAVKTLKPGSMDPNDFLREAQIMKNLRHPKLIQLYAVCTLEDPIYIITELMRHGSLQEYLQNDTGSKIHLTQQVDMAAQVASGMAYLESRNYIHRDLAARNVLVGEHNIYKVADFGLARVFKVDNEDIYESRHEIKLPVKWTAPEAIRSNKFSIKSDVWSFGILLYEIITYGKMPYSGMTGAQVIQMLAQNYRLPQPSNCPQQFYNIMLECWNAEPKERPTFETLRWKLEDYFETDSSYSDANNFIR

Sequence of PIM1 (human) (P11309 whole entry, looked up): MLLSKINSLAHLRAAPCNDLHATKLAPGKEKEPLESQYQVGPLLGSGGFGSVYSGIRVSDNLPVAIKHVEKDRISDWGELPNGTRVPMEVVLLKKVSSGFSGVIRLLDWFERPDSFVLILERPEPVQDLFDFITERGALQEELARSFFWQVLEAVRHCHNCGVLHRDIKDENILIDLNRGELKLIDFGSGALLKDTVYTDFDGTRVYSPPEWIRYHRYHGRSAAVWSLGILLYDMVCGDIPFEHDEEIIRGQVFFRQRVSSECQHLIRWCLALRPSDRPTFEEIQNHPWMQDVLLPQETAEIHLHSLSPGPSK
Sequence of PIM2 (human) (Q9P1W9 whole entry, looked up): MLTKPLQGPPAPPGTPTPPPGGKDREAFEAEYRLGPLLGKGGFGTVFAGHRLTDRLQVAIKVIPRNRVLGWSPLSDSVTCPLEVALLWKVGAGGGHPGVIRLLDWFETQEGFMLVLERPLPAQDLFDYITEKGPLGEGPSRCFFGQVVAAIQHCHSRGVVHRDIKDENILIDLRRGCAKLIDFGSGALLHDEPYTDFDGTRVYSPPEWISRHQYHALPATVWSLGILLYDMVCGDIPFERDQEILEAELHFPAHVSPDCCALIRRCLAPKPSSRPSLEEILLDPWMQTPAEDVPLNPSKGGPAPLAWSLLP

SMILES: N=C1NC(=O)/C(=C/c2ccc(-c3ccc(F)cc3)o2)S1
- IC50 (PIM2 (human) [1]): 590 nM
- IC50 (PIM1 (human) [2]): 1750 nM
- kinase still bound, per cent of control (IKBKB (human)): 29%
- kinase still bound, per cent of control (STK17A (human)): 0.45%
- kinase still bound, per cent of control (PIM3 (human)): 3.7%
- kinase still bound, per cent of control (DAPK2 (human)): 5.1%
- kinase still bound, per cent of control (CDK7 (human)): 15%
- kinase still bound, per cent of control (PIM2 (human) [3]): 1.2%
- kinase still bound, per cent of control (MAP2K3 (human)): 5.8%
- kinase still bound, per cent of control (CLK4 (human)): 28%
- kinase still bound, per cent of control (CLK2 (human)): 16%
- kinase still bound, per cent of control (DAPK1 (human)): 15%
- kinase still bound, per cent of control (TGFBR2 (human)): 7.8%
- kinase still bound, per cent of control (CHUK (human)): 27%
- kinase still bound, per cent of control (DAPK3 (human)): 14%
- kinase still bound, per cent of control (CDK16 (human)): 9.4%
- kinase still bound, per cent of control (TAOK3 (human)): 6.6%
- kinase still bound, per cent of control [4]: 34%
- kinase still bound, per cent of control (MAPK15 (human)): 0.95%
- kinase still bound, per cent of control (PIM1 (human) [5]): 3.4%
- kinase still bound, per cent of control (STK17B (human)): 2.2%
- kinase still bound, per cent of control (PLK4 (human)): 21%
- kinase still bound, per cent of control (DYRK1B (human)): 33%
- kinase still bound, per cent of control (CLK1 (human)): 26%
- kinase still bound, per cent of control (GSK3A (human)): 4.3%
- kinase still bound, per cent of control (GSK3B (human)): 30%
- kinase still bound, per cent of control (HIPK1 (human)): 0.2%
- kinase still bound, per cent of control (TAOK1 (human)): 0.3%

SMILES: COc1cc(N2CCN(C)CC2)ccc1Nc1ncc2c(n1)N(C)c1ccccc1C(=O)N2C
- kinase still bound, per cent of control (CAMK2D (human)): 23%
- kinase still bound, per cent of control (CAMK2A (human)): 32%
- kinase still bound, per cent of control (FER (human)): 32%
- kinase still bound, per cent of control (MAPK7 (human)): 0%
- kinase still bound, per cent of control (CAMKK2 (human)): 15%
- kinase still bound, per cent of control (TNK1 (human)): 0.4%
- kinase still bound, per cent of control (GAK (human)): 9.8%
- kinase still bound, per cent of control (PRKD1 (human)): 3.8%
- kinase still bound, per cent of control (TNK2 (human)): 3.2%
- kinase still bound, per cent of control (PTK2 (human)): 16%
- kinase still bound, per cent of control (SGK110 (human)): 30%
- kinase still bound, per cent of control (TTK (human)): 26%
- kinase still bound, per cent of control (PRKD3 (human)): 5.4%
- kinase still bound, per cent of control (DCLK2 (human)): 0.45%
- kinase still bound, per cent of control (TAOK3 (human)): 2%
- kinase still bound, per cent of control (PRKD2 (human)): 0.55%
- kinase still bound, per cent of control (PIK3CG (human)): 31%
- kinase still bound, per cent of control (MKNK2 (human)): 0%
- kinase still bound, per cent of control (PLK1 (human)): 9.8%
- kinase still bound, per cent of control (ROS1 (human)): 7.6%
- kinase still bound, per cent of control [6]: 5%
- kinase still bound, per cent of control (NUAK1 (human)): 7.6%
- kinase still bound, per cent of control (PLK4 (human)): 6.8%
- kinase still bound, per cent of control (NUAK2 (human)): 14%
- kinase still bound, per cent of control (ALK (human)): 16%
- kinase still bound, per cent of control (PHKG2 (human)): 29%
- kinase still bound, per cent of control (CHEK2 (human)): 30%
- kinase still bound, per cent of control (PIK3CD (human)): 33%
- kinase still bound, per cent of control (FGFR4 (human)): 5.6%
- kinase still bound, per cent of control [7]: 17%
- kinase still bound, per cent of control (DCLK1 (human)): 0.65%
- kinase still bound, per cent of control (DCLK3 (human)): 16%
- kinase still bound, per cent of control (CSF1R (human)): 16%
- kinase still bound, per cent of control (RPS6KA6 KD2 (human)): 4.9%
- kinase still bound, per cent of control (ULK1 (human)): 2.9%
- kinase still bound, per cent of control (PTK6 (human)): 7.6%
- kinase still bound, per cent of control (CAMK2G (human)): 31%
- kinase still bound, per cent of control (RPS6KA2 KD2 (human)): 15%
- kinase still bound, per cent of control (ULK2 (human)): 0.5%
- kinase still bound, per cent of control (MYLK (human)): 13%
- kinase still bound, per cent of control (STK33 (human)): 8.8%
- kinase still bound, per cent of control (RPS6KA1 KD2 (human)): 18%
- kinase still bound, per cent of control (FRK (human)): 2.6%
- kinase still bound, per cent of control (TAOK1 (human)): 4.8%
